Common to all, as to type: cell-based
Experiment [1] relates to Ba/F3 cells expressing del19/T790M/C797S (EGFR-DTC). Put plainly: Growth inhibition (GI50) of Ba/F3 cells expressing del19/T790M/C797S (EGFR-DTC), Celltiter glo. Conditions: Mus musculus, BaF3, 72 h. In a few lines: (§1)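 Viable-cell luminescence (CellTiter-Glo) after 72 h compound exposure at 37 °C, 5% CO2 gave GI50 (μM, 50% growth inhibition). Compounds were 4-fold serial dilutions, 10 points, from a 2 mM stock, 0.5% DMSO, added 4 h after plating EGFR-variant Ba/F3 cells at 100,000 cells/ml.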

The subject of experiment [2] is Ba/F3 cells expressing EGFR-wt. Description: Growth inhibition (GI50) of Ba/F3 cells expressing EGFR-wt, Celltiter glo. The settings on record: Mus musculus, BaF3, 72 h. Put shortly:
as §1
(In general: ATP-based viability assays read luminescence as a measure of living cells.)

The subject of experiment [3] is Ba/F3 cells expressing L858R/T790M/C797S (EGFR-LTC). Description: Growth inhibition (GI50) of Ba/F3 cells expressing L858R/T790M/C797S (EGFR-LTC), Celltiter glo. Conditions: Mus musculus, BaF3, 72 h. The protocol:
In this experimental example, a determination was made as to whether the compounds prepared in Examples 1-283 have the ability to inhibit the growth of Ba/F3 cells expressing EGFR-wt, del19/T790M/C797S (EGFR-DTC), L858R/T790M/C797S (EGFR-LTC), del19/T790M (EGFR-DT), and L858R/T790M (EGFR-LT) variants.
The parental Ba/F3 cell line is a population of cells that are not introduced with EGFR variants. Specifically, 100 μl of a cell line expressing each variant was plated in a 96-well plate at a density of 100,000 cells/ml. 10-point, 4-fold serial dilutions of each compound were prepared, starting at 2 mM. After 4 h, 0.5 μl of the compound (0.5% DMSO) was added, followed by incubation at 37° C. and 5% CO2 for 72 h. After incubation, the number of viable cells was measured using a Celltiter glo assay kit (Promega) and the GI50 of the compound was determined. The term “GI50” refers to the molar concentration (μM) of the compound required for 50% growth inhibition of cells.

The subject of the next experiment is parental Ba/F3 cell line. Put plainly: Growth inhibition (GI50) of the parental Ba/F3 cell line (not introduced with EGFR variants), Celltiter glo. The settings on record: Mus musculus, BaF3, 72 h, parental Ba/F3 cells. In a few lines: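 Parental Ba/F3 cells (100,000 cells/ml) were treated with 10-point, 4-fold compound dilutions (0.5% DMSO; top stock 2 mM) for 72 h at 37 °C, 5% CO2. Viability was read by CellTiter-Glo; GI50 is the concentration (μM) giving 50% growth inhibition.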

SMILES strings stand for the structures.

A word on the GI50: it is the concentration at which growth is held to half of that of the control. On to `CC(=O)Nc1cc(Cl)c(Cl)cc1Nc1nc(Nc2ccc(N3CCC(N4CCN(C)CC4)CC3)cc2Cl)ncc1Cl` [Example 77, N-(4,5-dichloro-2-((5-chloro-2-((2-chloro-4-(4-(4-methylpiperazin-1-yl)piperidin-1-yl)phenyl)amino)pyrimidin-4-yl)amino)phenyl)acetamide], for which the GI50 (in experiment [1]; in experiment [2]; in experiment [3]; with parental Ba/F3 cell line) was 0.5 to 2 µM each time.

As for `COc1cc(N2CCC(N3CCN(C)CC3)CC2)c(C)cc1Nc1ncc(Cl)c(N(C)c2cc(Cl)c(Cl)cc2N(C)C(C)=O)n1` [Example 78, N-(4,5-dichloro-2-((5-chloro-2-((2-methoxy-5-methyl-4-(4-(4-methylpiperazin-1-yl)piperidin-1-yl)phenyl)amino)pyrimidin-4-yl)(methyl)amino)phenyl)-N-methylacetamide], the GI50 (in experiment [1]; in experiment [2]; in experiment [3]; with parental Ba/F3 cell line) was 2 to 10 µM each time.

Turning to `COc1nc(N2CCC(N3CCN(C)CC3)CC2)ccc1Nc1ncc(Cl)c(N(C)c2cc(Cl)c(Cl)cc2N(C)C(C)=O)n1` [Example 79, N-(4,5-dichloro-2-((5-chloro-2-((2-methoxy-6-(4-(4-methylpiperazin-1-yl)piperidin-1-yl)pyridin-3-yl)amino)pyrimidin-4-yl)(methyl)amino)phenyl)-N-methylacetamide], the GI50 in experiment [1] was 0.5 to 2 µM; in experiment [2] it was 2 to 10 µM; in experiment [3], 0.5 to 2 µM; in the experiment with parental Ba/F3 cell line, 0.5 to 2 µM.

Turning to `COc1nc(N2CCC(N3CCN(C)CC3)CC2)ccc1Nc1ncc(Cl)c(Nc2cc(Cl)ccc2NS(C)(=O)=O)n1` [Example 81], the 50% growth inhibitory concentration (GI50) in experiment [1] was in the range of 0.5 to 2 µM; in experiment [2], 2 to 10 µM; in experiment [3], 0.5 to 2 µM; with parental Ba/F3 cell line, 0.5 to 2 µM.

Take `COc1cc(N2CCC(N3CCN(C)CC3)CC2)ccc1Nc1ncc(Cl)c(Nc2cc(Cl)ccc2NS(C)(=O)=O)n1` [Example 82, N-(4-chloro-2-((5-chloro-2-((2-methoxy-4-(4-(4-methylpiperazin-1-yl)piperidin-1-yl)phenyl)amino)pyrimidin-4-yl)amino)phenyl)methanesulfonamide]: the GI50 in experiment [1] is 0.1 to 0.5 µM; in experiment [2], 0.5 to 2 µM; in experiment [3] it was 0.1 to 0.5 µM; with parental Ba/F3 cell line, 0.5 to 2 µM.

On to `COc1nc(N2CCC(N3CCN(C)CC3)CC2)c(C)cc1Nc1ncc(Cl)c(Nc2cc(Cl)ccc2NS(C)(=O)=O)n1` [Example 83, N-(4-chloro-2-((5-chloro-2-((2-methoxy-5-methyl-6-(4-(4-methylpiperazin-1-yl)piperidin-1-yl)pyridin-3-yl)amino)pyrimidin-4-yl)amino)phenyl)methanesulfonamide], for which the GI50 was 0.1 to 0.5 µM in experiment [1], 0.5 to 2 µM in experiment [2], 0.1 to 0.5 µM in experiment [3] and 2 to 10 µM with parental Ba/F3 cell line.

As to `CN1CCN(C2CCN(c3ccc(Nc4ncc(Cl)c(Nc5cc(Cl)ccc5NS(C)(=O)=O)n4)cc3F)CC2)CC1` [Example 84, N-(4-chloro-2-((5-chloro-2-((3-fluoro-4-(4-(4-methylpiperazin-1-yl)piperidin-1-yl)phenyl)amino)pyrimidin-4-yl)amino)phenyl)methanesulfonamide], the GI50 in experiment [1] lay in the range of 0.1 to 0.5 µM; in experiment [2] it was 0.1 to 0.5 µM; in experiment [3] it was 0.1 to 0.5 µM; in the experiment on parental Ba/F3 cell line it was 0.5 to 2 µM.

With `COc1cc(N2CCC(N3CCC(N(C)C)C3)CC2)c(C)cc1Nc1ncc(Br)c(Nc2cc(Cl)ccc2NS(C)(=O)=O)n1` (stereo not drawn) [Example 91, N-(2-((5-bromo-2-((4-(4-(3-(dimethylamino)pyrrolidin-1-yl)piperidin-1-yl)-2-methoxy-5-methylphenyl)amino)pyrimidin-4-yl)amino)-4-chlorophenyl)methanesulfonamide], the GI50 is 0.001 to 0.025 µM in experiment [1], 0.1 to 0.5 µM in experiment [2], 0.025 to 0.1 µM in experiment [3] and 2 to 10 µM in the experiment on parental Ba/F3 cell line.

In the case of `COc1cc(N2CCC(N3CCN(C)CC3)CC2)c(F)cc1Nc1ncc(Br)c(Nc2cc(Cl)ccc2NS(C)(=O)=O)n1` [Example 92, N-(2-((5-bromo-2-((5-fluoro-2-methoxy-4-(4-(4-methylpiperazin-1-yl)piperidin-1-yl)phenyl)amino)pyrimidin-4-yl)amino)-4-chlorophenyl)methanesulfonamide], the GI50 in experiment [1] was 0.001 to 0.025 µM; in experiment [2], 0.1 to 0.5 µM; in experiment [3], 0.025 to 0.1 µM; with parental Ba/F3 cell line, 2 to 10 µM.

For the compound `Cc1cc(Nc2ncc(Br)c(Nc3cc(Cl)ccc3NS(C)(=O)=O)n2)c(Cl)cc1N1CCC(N2CCN(C)CC2)CC1` [Example 93, N-(2-((5-bromo-2-((2-chloro-5-methyl-4-(4-(4-methylpiperazin-1-yl)piperidin-1-yl)phenyl)amino)pyrimidin-4-yl)amino)-4-chlorophenyl)methanesulfonamide], the GI50 in experiment [1] lay within 0.001 to 0.025 µM; in experiment [2], 0.5 to 2 µM; in experiment [3] it was 0.025 to 0.1 µM; with parental Ba/F3 cell line, 2 to 10 µM.

As for `Cc1cc(Nc2ncc(Br)c(Nc3cc(Cl)ccc3NS(C)(=O)=O)n2)c(Cl)cc1N1CCC(N2CCC(N(C)C)C2)CC1` (stereo not drawn) [Example 96, N-(2-((5-bromo-2-((2-chloro-4-(4-(3-(dimethylamino)pyrrolidin-1-yl)piperidin-1-yl)-5-methylphenyl)amino)pyrimidin-4-yl)amino)-4-chlorophenyl)methanesulfonamide], the GI50 in experiment [1] is 0.5 to 2 µM; in experiment [2] it was 0.5 to 2 µM; in experiment [3] it was 0.5 to 2 µM; in the experiment on parental Ba/F3 cell line it was > 10 µM.

Consider `COc1cc(N2CCC(N3CCN(C)CC3)CC2)c(C)cc1Nc1ncc(Cl)c(Nc2cc(Cl)c(Cl)cc2NS(C)(=O)=O)n1` [Example 99, N-(4,5-dichloro-2-((5-chloro-2-((2-methoxy-5-methyl-4-(4-(4-methylpiperazin-1-yl)piperidin-1-yl)phenyl)amino)pyrimidin-4-yl)amino)phenyl)methanesulfonamide], for which the GI50 in experiment [1] was 0.025 to 0.1 µM; in experiment [2] it was 0.5 to 2 µM; in experiment [3] it was 0.025 to 0.1 µM; in the experiment with parental Ba/F3 cell line, > 10 µM.

With `COc1nc(N2CCC(N3CCN(C)CC3)CC2)c(C)cc1Nc1ncc(Cl)c(Nc2cc(Cl)c(Cl)cc2NS(C)(=O)=O)n1` [Example 100], the GI50 is 0.1 to 0.5 µM in experiment [1], 0.5 to 2 µM in experiment [2], 0.1 to 0.5 µM in experiment [3] and 2 to 10 µM in the experiment with parental Ba/F3 cell line.

With `CN1CCN(C2CCN(c3ccc(Nc4ncc(Cl)c(Nc5cc(Cl)c(Cl)cc5NS(C)(=O)=O)n4)cc3F)CC2)CC1` [Example 101, N-(4,5-dichloro-2-((5-chloro-2-((3-fluoro-4-(4-(4-methylpiperazin-1-yl)piperidin-1-yl)phenyl)amino)pyrimidin-4-yl)amino)phenyl)methanesulfonamide], the GI50 lay in the range of 0.1 to 0.5 µM in experiment [1], 0.1 to 0.5 µM in experiment [2], 0.1 to 0.5 µM in experiment [3] and 2 to 10 µM in the experiment with parental Ba/F3 cell line.

With `CN1CCN(C2CCN(c3ccc4cc(Nc5ncc(Cl)c(Nc6cc(Cl)c(Cl)cc6NS(C)(=O)=O)n5)ccc4n3)CC2)CC1` [Example 102, N-(4,5-dichloro-2-((5-chloro-2-((2-(4-(4-methylpiperazin-1-yl)piperidin-1-yl)quinolin-6-yl)amino)pyrimidin-4-yl)amino)phenyl)methanesulfonamide], the GI50 in experiment [1] lay in the range of 0.5 to 2 µM; in experiment [2], 0.5 to 2 µM; in experiment [3], 0.1 to 0.5 µM; in the experiment with parental Ba/F3 cell line it was 2 to 10 µM.
